Assay results: patent US10702589B2, “Compositions and methods of treating neurological disorder and stress-induced conditions” (Ann and Robert H. Lurie Children's Hospital of Chicago, priority 2016, dated 2020)

System: AkrRE1/2 luciferase reporters
Assay: AkrRE1/2 luciferase reporter assay with mevalonate pathway metabolites in primary CGE and MGE cells
Format: cell-based, mouse
Details: FOH 0.1-100 μM, GGOH 0.01-100 μM, FIG. 2G-J
Source text: For all luciferase experiments, enhancers were cloned into the pGL3 promoter vector (Promega) using the KpnI and NheI restriction sites on the 5′ and 3′ sites, respectively. The Calb1 enhancers (site 1, site 2, and site 3), AkrR enhancers (site 1 and site 2), NPY enhancers (site 1 and site 2), and SST enhancer (site 1) were identified by MACS2 peak analysis of ChIP-seq (DNA sequences obtained from the UCSC genome browser). Primers were designed to PCR amplify enhancer sequences from C57BL/6J mouse genomic DNA into expression plasmids.
MGE and CGE tissues were dissected from E13.5 Swiss Webster embryos, dissociated in L15 media by pipetting several times, and spun through a cell strainer for single cell preparations. Briefly, cells were seeded at a density of 2.5×10^5 cells per cm^2 (Flandin et al. 2011). One day prior to seeding cells, 24-well plates were coated with poly-L-lysine (30 μg/mL; Sigma) and laminin (5 μg/mL; Sigma), while 96-well plates were coated with poly-L-lysine (3 μg/mL; Sigma) and laminin (5 μg/mL; Sigma). Initially, cells were seeded in neurobasal medium (DMEM/F-12 supplemented with L-glutamate, B-27 (Gibco), N2 supplement (Gibco), bovine pituitary extract (35 μg/mL; Life Technologies), mito+ serum extender (BD Biosciences), penicillin (100 U/mL; Gibco), streptomycin (100 μg/mL; Gibco), and glutamax (0.8 mM; Gibco)). […]

SMILES: CC(C)=CCCC(C)=CCCC(C)=CCO [FOH, farnesol]
- effect on AkrRE1/2 luciferase reporters, normalized to buffer alone: dose-dependent, enhancer- and region-specific effects

SMILES: CC(C)=CCC/C(C)=C/CC/C(C)=C/CC/C(C)=C/CO [GGOH, geranylgeraniol]
- effect on AkrRE1/2 luciferase reporters, normalized to buffer alone: dose-dependent, enhancer- and region-specific effects
